# Assay results as given in PubChem BioAssay AID849 (SRMLSC, 2007).
# Calls of active or inactive are those of the source. No rule for the calls is given here.
# Test system: Saccharomyces cerevisiae lifespan shortening, growth inhibition
# Assay: yeast lifespan shortening compounds, dose response (AID 849);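 also: yeast growth read as optical density after two days at 30 degrees C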
row,SMILES,IC50
1,O=[N+]([O-])c1cc(CN2CCCC2)c2cccnc2c1O,> 100 µM (inactive)
2,Cc1ccc(C(=O)Oc2ccc(Cl)c3cccnc23)cc1[N+](=O)[O-],47.4 µM
3,Cc1ccccc1C(=O)NNC(=S)NC(=O)COc1ccccc1,46.3 µM
4,Fc1ccc2nc3[nH]c4ccccc4c3nc2c1,39.9 µM
5,Nc1ccc(C(=O)OCC(=O)Nc2ccc3c(c2)OCO3)cc1[N+](=O)[O-],> 100 µM (inactive)
6,Oc1c(Cl)cc(Cl)c(Cl)c1Cc1c(O)c(Cl)cc(Cl)c1Cl,> 100 µM (inactive)
7,N#CSCC(=O)c1cccc2ccccc12,8.65 µM
8,CCc1oc2ccccc2c1C(=O)c1cc(Br)c(O)c(Br)c1,49.2 µM
9,COc1ccc(S(=O)(=O)n2oc(=O)cc2-c2ccccc2)cc1OC,> 100 µM (inactive)
10,c1ccc(-c2ccc(-c3ccccn3)nn2)nc1,49.3 µM
11,Clc1ccccc1N/N=C/c1ccc2c(c1)OCO2,32.5 µM
12,Cc1ccccc1N=Cc1cccc(O)c1O,10 µM
13,Oc1c(CN2CCCCC2)cc(Br)c2cccnc12,11.2 µM
14,COc1ccc2nc(NC(=S)N(C)C)sc2c1,> 100 µM (inactive)
15,O=C(Nc1cccc(N=Cc2cc(Br)cc(Br)c2O)c1)c1ccco1,19.3 µM
16,Oc1c(CN2CCc3ccccc3C2)cc(Cl)c2cccnc12,16 µM
17,Cc1nc2ccccc2c2c1C(=O)N(C)C2=O,10.9 µM
18,c1ccc(N(c2ccccc2)c2nc(-n3ccnc3)nc(-n3ccnc3)n2)cc1,> 100 µM (inactive)
19,CCOc1ccc(-c2[nH]ncc2Oc2cccc(OC)c2)c(O)c1,22.8 µM
20,CCCc1cc(C(=O)Cc2ccc(F)cc2)c(O)cc1O,48.3 µM
21,S=C(NCC1CCCCC1)Nc1ccc(Oc2ccccc2)cc1,> 100 µM (inactive)
22,CC(C)(C)C(=O)O/N=C1/C(=O)N(c2ccccc2)c2ccccc21,30.6 µM
23,O=C(/C(=N/N=C/c1ccc(O)c(O)c1O)c1ccccc1)c1ccccc1,25.8 µM
24,Cc1cc(C)nc(/N=c2/ssnc2Cl)c1,> 100 µM (inactive)

row,SMILES,IC50
1,Cn1cccc1C(=O)NC(=O)CSc1cccc[n+]1[O-],21.8 µM
2,N#CCSc1nc2ccccc2c2nc3ccccc3n12,29.3 µM
3,Oc1ccc(-c2csc(-c3ccccc3)n2)cc1O,27.5 µM
4,COc1ccc2cc(C(=O)O)ccc2c1,13.9 µM
5,Cc1cccc(NC(=O)CC2SC(=O)N(c3ccccc3)C2=O)c1 (stereo not drawn),> 100 µM (inactive)
6,CCOC(=O)c1c(N)sc(C(O)(C(F)(F)F)C(F)(F)F)c1-c1ccc(Cl)cc1,> 100 µM (inactive)
7,COC(=O)Cn1c2ccccc2c2nc(C)sc21,> 100 µM (inactive)
8,O=c1cc(-c2ccccc2)n(S(=O)(=O)c2ccccc2)o1,39.8 µM
9,COc1cccc2c(=O)c3c(cnn3C)n(C)c12,11.7 µM
10,CCCn1c(Nc2nc3ccccc3n2C)nc2ccccc21,43.3 µM
11,CCOC(=O)C1CCCCN1C(=O)CCc1c(C)nc2cc(-c3ccccc3)nn2c1C (stereo not drawn),> 100 µM (inactive)
12,C/C(=N\Nc1ccc([N+](=O)[O-])cc1)c1ccc(N)cc1,40.2 µM
13,CC(Oc1ccc(Cl)cc1Cl)C(=O)NC1=NN(c2ccccc2)C(=O)C1 (stereo not drawn),9.36 µM
14,Cc1ccc(-n2nnc3c(=O)n(CC(=O)N4CCC(C)CC4)cnc32)cc1,> 100 µM (inactive)
15,Nc1nonc1C(=O)NCCN=Cc1cc(Cc2ccccc2)cc(Br)c1O,> 100 µM (inactive)
16,Cc1ccc(C(=O)c2c(C)oc3c2C(=O)C(=O)c2ccccc2-3)cc1,48.1 µM
17,Cc1c2cc(O)c(=O)cc-2oc2cc(O)c(O)cc12,28.1 µM
18,O=C(c1ccccc1)c1ccc2nc(N3CCCCC3)c3nncn3c2c1,> 100 µM (inactive)
19,Cc1ccnn2cc3c(=O)n(C)c(=O)n(C)c3c12,23.2 µM
20,COc1ccc(C(=O)NC(=S)NNC(=O)c2cnccn2)cc1OC,20.5 µM
21,O=c1cc(-c2ccncc2)oc2ccccc12,51.1 µM
22,CCOCC(=O)Nc1nc2c(s1)C(=O)CC(C)(C)C2,> 100 µM (inactive)
23,CCCn1c(C(C)NC(C)=O)nc2ccccc21 (stereo not drawn),> 100 µM (inactive)
24,CCOC(=O)c1cnc(-n2nc(C)cc2C)nc1NC1CCCCC1,20 µM

row,SMILES,IC50
1,CN1C(=O)C(O)(CC(=O)c2ccccc2O)c2cc(Br)ccc21 (stereo not drawn),> 100 µM (inactive)
2,CC1CCCC2(C1)NC(=S)c1c(sc3c1CCCC3)N2 (stereo not drawn),> 100 µM (inactive)
3,CCn1c2ccccc2c2cc(Nc3cc(C)nc4ncnn34)ccc21,> 100 µM (inactive)
4,NNC(=O)c1cccc(COc2ccc3c(c2)CCC3)c1,17.3 µM
5,COc1cc(OC)c(C2CC(=O)N3CN(C)CSC3=C2C#N)cc1OC (stereo not drawn),> 100 µM (inactive)
6,CN(c1ccccc1)c1ccc(/C=C/[N+](=O)[O-])cc1,49.2 µM
7,C=CCn1cnc2c(c1=O)c1nc3ccccc3nc1n2/N=C/c1cc(OC)c(OC)c(OC)c1,37.4 µM
8,Cn1c(C(=O)N2CCC(C(=O)N3CCN(Cc4ccc5c(c4)OCO5)CC3)CC2)cc2sccc21,> 100 µM (inactive)
9,C/C(=N\NC(=O)c1ccc(CSc2cccc3cccnc23)cc1)C1CCCCC1,33.8 µM
10,CC(Sc1cccc[n+]1[O-])C(=O)Nc1cccc(S(=O)(=O)N2CCOCC2)c1 (stereo not drawn),6.11 µM
11,CCCCCCCCCCn1c2c(c(=N)c3c1CCC3)CCC2,9.12 µM
12,O=c1c2ccccc2nc2c3ccccc3c3nncn3n12,49.9 µM
13,N/C(Cc1ccc(Cl)cc1)=N\OC(=O)c1cccc2ccccc12,41 µM
14,CC(C)Sc1nc(N)nc(-c2cccs2)c1C#N,> 100 µM (inactive)
15,O=c1c(-c2ccc(Cl)cc2)[n+]([O-])c2ccccc2n1O,7.87 µM
16,Clc1ccc(CSC(Cn2ccnc2)c2ccc(Cl)cc2Cl)cc1 (stereo not drawn),0.528 µM
17,c1ccc(Cc2nnc3sc(-c4ccco4)nn23)cc1,> 100 µM (inactive)
18,Cc1ccc(/C=C2\C(=O)NC(=S)N(c3ccccc3F)C2=O)s1,13.9 µM
19,O=C1C(=C2CCCCC2)SC(=S)N1Cc1ccco1,> 100 µM (inactive)
20,CC(=O)N1c2ccccc2C2(O)N=C(C)SC12 (stereo not drawn),> 100 µM (inactive)
21,O=C(O)CSc1cccc[n+]1[O-],33.9 µM
22,O=c1oc2ccccc2c(O)c1/C=C1\C=Nc2ccccc21,18 µM
23,N/C(=N\OC(=O)c1ccc(Cl)cc1Cl)c1ccccc1,> 100 µM (inactive)
24,O=C(O)c1ccccc1Nc1ccc([N+](=O)[O-])cc1,10.8 µM

row,SMILES,IC50
1,CCc1ccc2c(c1)C1(NN=C(c3cccc4ccccc34)S1)C(=O)N2 (stereo not drawn),41.3 µM
2,CCCCOC(=O)n1c(=S)oc2cc(Cl)ccc21,16.5 µM
3,Oc1c(Br)cc(Br)cc1/C=N/c1nc2c(s1)CCCC2,17.5 µM
4,CCCCCC/C(C)=C1/SC(=S)NC1=O,> 100 µM (inactive)
5,COc1ccc(-c2cc(=O)n(-c3nc4ccccc4[nH]3)[nH]2)cc1,12.5 µM
6,Cc1cc(O)c(/C=N/Nc2ccccc2Cl)c(=O)o1,29.7 µM
7,Cc1ccc(N2CCOCC2)c2c1C(=O)c1ccccc1C2=O,9.55 µM
8,Cc1cccc(N=Nc2ccc(O)c3ncccc23)c1,34.8 µM
9,O=C(Nc1nnc(C2CC2)s1)c1ccccn1,42.6 µM
10,O=C1c2ccccc2C(=O)c2c1cccc2N1CCOCC1,46.6 µM
11,COc1cc(Br)cc(/C=N/c2ncn[nH]2)c1O,28.8 µM
12,Nc1nc2sc3c(c2c(=O)s1)CCCC3,> 100 µM (inactive)
13,O=C(c1ccc(Cl)cc1)c1c[nH]c(C(=O)C(Cl)(Cl)Cl)c1,37.8 µM
14,O=C1C(=O)c2c(C(=O)c3ccccc3)coc2-c2ccccc21,13.4 µM
15,CCCC1COC(Cn2cncn2)(c2ccc(C)cc2)O1 (stereo not drawn),3.94 µM
16,COC1=C(c2ccccc2)C(=O)c2ccccc2C1=O,16.2 µM
17,CCC(=O)c1c(O)n(C2CCCCCC2)c(=O)[nH]c1=O,23.4 µM
18,O=C(CSc1cccc[n+]1[O-])c1cc2ccccc2o1,2.97 µM
19,CCCCCC1CCC(C(=O)O)CC1 (stereo not drawn),> 100 µM (inactive)
20,CC(=O)NC(c1cccs1)c1cc([N+](=O)[O-])c2cccnc2c1O (stereo not drawn),> 100 µM (inactive)
21,CCOc1ccc(NCc2nc3ccccc3n2CCOc2ccccc2)cc1,> 100 µM (inactive)
22,O=C(O)c1cc(-c2ccc(/C=N/Nc3ccc(Cl)cc3)o2)ccc1Cl,11.7 µM
23,O=C(Nc1cccc(N=Cc2cc(Cl)cc(Br)c2O)c1)c1ccco1,> 100 µM (inactive)
24,CCCCCCCCCCCCCCCC[n+]1ccc(/C=N/O)cc1,1.54 µM

row,SMILES,IC50
1,O=c1cccc2n1Cc1cc3ccccc3nc1-2,29.8 µM
2,Cc1nn(-c2ccccc2)c2sc(C(=O)O)cc12,47.2 µM
3,Cc1ncc(CC(=O)n2cc(C(=O)c3cc(Cl)ccc3O)cn2)s1,12 µM
4,Cc1cccc(C(=O)Oc2csc(=S)n2C(=O)c2cccc(C)c2)c1,> 100 µM (inactive)
5,c1ccc(-c2nc3nonc3nc2-c2ccccc2)cc1,> 100 µM (inactive)
6,Cc1ccc(C)c(/C=C/C(=O)c2ccccc(=O)c2O)c1,6.4 µM
7,Clc1ccc(COC(Cn2ccnc2)c2ccc(Cl)cc2Cl)c(Cl)c1 (stereo not drawn),< 0.098 µM
8,FC(F)Sc1ccc(Nc2ncnc3nc[nH]c23)cc1,> 100 µM (inactive)
9,CCOC(=O)/C(=N\Nc1cccc(C(F)(F)F)c1)N(CCOC)CCOC,> 100 µM (inactive)
10,CC(C)(C)C(O)C(Oc1ccc(Cl)cc1)n1cncn1 (stereo not drawn),3.14 µM
11,O=C(N/N=C/c1sc2ccccc2c1O)c1cccc2ccccc12,21 µM
12,CC(=O)NC1C(=O)N=C(SCC(=O)NC2CCCCC2)NC1=O (stereo not drawn),> 100 µM (inactive)
13,Cc1cc(C(=O)COC(=O)c2ccc[nH]c2=O)c(C)n1-c1ccc(Br)cc1,> 100 µM (inactive)
14,Cc1ccc(N2NC(C)(c3cccs3)NC2=S)cc1 (stereo not drawn),> 100 µM (inactive)
15,Cc1cccc(-c2nnc3sc(-c4ccccc4C)nn23)c1,> 100 µM (inactive)
16,CCOC(=O)c1cnc(-n2nc(C)cc2C)nc1NNc1cc(C)nc(-c2ccccc2)n1,> 100 µM (inactive)
17,COc1ccc(C(=O)N/N=C/c2sc3ccccc3c2O)cc1,> 100 µM (inactive)
18,OC(Cn1cncn1)(c1ccccc1)c1ccccc1,13.9 µM
19,O=C(N/N=C1\CC2CC=CC12)c1ccc(COc2ccccc2)cc1 (stereo not drawn),> 100 µM (inactive)
20,CNC(=O)c1cc2c(ccc3ccccc32)oc1=N,12.4 µM
21,Oc1c(N=Nc2ccccn2)ccc2ccccc12,15.5 µM
22,CCC(=C(c1ccc(OC)cc1)c1ccc(OC)cc1)c1cn(CC(O)CN2CCN(C)CC2)c2ccccc12 (stereo not drawn),36.9 µM
